Source: patent publication US20060167057A1, “Compounds for the treatment of CNS and amyloid associated diseases” (priority 2004, published 2006)

Biological target: T1, L1 transport system (large neutral amino acid carrier, L1-system carrier) (Rattus norvegicus, UniProt Q63016)
T1 construct: functionality of their endogenous transporters such as the L1-system carrier; endogenous in cells; host or cells: rat primary cerebrovascular (brain microcapillary) endothelial cells, RBEC
Experiment: Competitive binding assay to the brain L1 transport system (L-[U-14C]phenylalanine on rat primary cerebrovascular endothelial cells)
Method in brief: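 Cells were primary cerebral microvascular endothelial cells from cortices of 24-day-old rats, isolated by collagenase/DNAse digestion, dextran separation and mesh filtration.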

T1 sequence (Q63016 whole entry): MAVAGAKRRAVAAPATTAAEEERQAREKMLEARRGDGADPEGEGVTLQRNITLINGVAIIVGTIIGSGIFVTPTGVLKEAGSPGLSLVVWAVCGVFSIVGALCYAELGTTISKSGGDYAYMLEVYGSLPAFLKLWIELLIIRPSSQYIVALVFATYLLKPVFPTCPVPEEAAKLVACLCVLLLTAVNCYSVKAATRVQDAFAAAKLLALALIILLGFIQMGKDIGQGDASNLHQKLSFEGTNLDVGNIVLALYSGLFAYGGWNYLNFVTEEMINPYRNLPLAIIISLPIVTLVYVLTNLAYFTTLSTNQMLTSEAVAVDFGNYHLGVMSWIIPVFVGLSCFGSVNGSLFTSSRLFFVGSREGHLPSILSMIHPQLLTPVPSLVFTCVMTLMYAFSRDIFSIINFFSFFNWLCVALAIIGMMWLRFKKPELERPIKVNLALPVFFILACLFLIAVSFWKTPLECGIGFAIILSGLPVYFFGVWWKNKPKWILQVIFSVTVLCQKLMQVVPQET
T1 sequence (Q794F9 whole entry partner): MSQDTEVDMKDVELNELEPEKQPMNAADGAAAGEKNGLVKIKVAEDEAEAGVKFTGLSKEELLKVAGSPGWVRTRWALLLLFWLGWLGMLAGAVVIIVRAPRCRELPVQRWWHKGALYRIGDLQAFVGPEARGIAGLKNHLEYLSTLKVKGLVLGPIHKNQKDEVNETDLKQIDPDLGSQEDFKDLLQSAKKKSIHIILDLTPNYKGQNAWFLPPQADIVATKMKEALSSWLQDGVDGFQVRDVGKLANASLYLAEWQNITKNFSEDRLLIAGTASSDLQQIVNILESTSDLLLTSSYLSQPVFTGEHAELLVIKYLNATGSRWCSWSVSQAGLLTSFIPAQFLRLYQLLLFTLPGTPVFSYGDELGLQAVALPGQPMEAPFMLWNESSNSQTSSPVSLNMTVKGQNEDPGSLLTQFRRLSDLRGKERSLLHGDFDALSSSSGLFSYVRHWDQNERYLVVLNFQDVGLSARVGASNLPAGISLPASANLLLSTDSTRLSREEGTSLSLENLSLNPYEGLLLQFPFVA

| Compound | Comparison with the Binding of Phenylalanine (10^−4 M) | Comparison with the Binding of Phenylalanine (10^−5 M) | Comparison with the Binding of Phenylalanine (10^−6 M) |
| --- | --- | --- | --- |
| CN(C)CCn1nnnc1Sc1cccc(-c2cccc(CC(N)C(=O)O)c2)c1 (stereo not drawn) [Compound 103] | 2 (10 < X < 20 Rank 2) | 2 (10 < X < 20 Rank 2) | 2 (10 < X < 20 Rank 2) |
| NC(Cc1cccc(CSc2nc(-c3ccccc3)c(-c3ccccc3)o2)c1)C(=O)O (stereo not drawn) [Compound 104] | 2 (10 < X < 20 Rank 2) | 3 (X > 20 Rank 3) | 3 (X > 20 Rank 3) |
| NC(Cc1cccc(-c2cccc(N3CCN(c4ccc(F)cc4)CC3)c2)c1)C(=O)O (stereo not drawn) [Compound 105] | 2 (10 < X < 20 Rank 2) | 2 (10 < X < 20 Rank 2) | 2 (10 < X < 20 Rank 2) |
| NC(Cc1cccc(-c2cccc(Sc3nc4cc([N+](=O)[O-])ccc4s3)c2)c1)C(=O)O (stereo not drawn) [Compound 109] | 2 (10 < X < 20 Rank 2) | 3 (X > 20 Rank 3) | 3 (X > 20 Rank 3) |
| NC(Cc1cccc(CSc2nc3ccccc3c(=O)[nH]2)c1)C(=O)O (stereo not drawn) [Compound 110] | 1 (0 < X < 10 Rank 1) | 1 (0 < X < 10 Rank 1) | 1 (0 < X < 10 Rank 1) |
| Cc1nnc(Sc2cccc(-c3cccc(CC(N)C(=O)O)c3)c2)s1 (stereo not drawn) [Compound 111] | 2 (10 < X < 20 Rank 2) | 3 (X > 20 Rank 3) | 3 (X > 20 Rank 3) |
| CC(=O)c1ccc(N2CCN(Cc3cccc(CC(N)C(=O)O)c3)CC2)cc1 (stereo not drawn) [Compound 112] | 2 (10 < X < 20 Rank 2) | 3 (X > 20 Rank 3) | 3 (X > 20 Rank 3) |
| NC(Cc1cccc(-c2cccc(N3CCN(c4ccccn4)CC3)c2)c1)C(=O)O (stereo not drawn) [Compound 113] | 0 (X < 0 Rank 0) | 0 (X < 0 Rank 0) | 2 (10 < X < 20 Rank 2) |
| NC(Cc1cccc(CSc2ccc3ccccc3n2)c1)C(=O)O (stereo not drawn) [Compound 114] | 0 (X < 0 Rank 0) | 0 (X < 0 Rank 0) | 2 (10 < X < 20 Rank 2) |
| NC(Cc1cccc(-c2cccc(N3CCc4ccccc4C3)c2)c1)C(=O)O (stereo not drawn) [Compound 115] | 0 (X < 0 Rank 0) | 0 (X < 0 Rank 0) | 1 (0 < X < 10 Rank 1) |
| NC(Cc1ccc(-c2ccc(CN3CCN(c4cccc(Cl)c4)CC3)cc2)cc1)C(=O)O (stereo not drawn) [Compound 116] | 1 (0 < X < 10 Rank 1) | 2 (10 < X < 20 Rank 2) | 2 (10 < X < 20 Rank 2) |
| N#CC1(c2ccccc2)CCN(Cc2cccc(CC(N)C(=O)O)n2)CC1 (stereo not drawn) [Compound 117] | 0 (X < 0 Rank 0) | 0 (X < 0 Rank 0) | 1 (0 < X < 10 Rank 1) |
| CN(C)CCn1nnnc1SCc1ccc(-c2ccc(CC(N)C(=O)O)cc2)cc1 (stereo not drawn) [Compound 118] | 3 (X > 20 Rank 3) | 3 (X > 20 Rank 3) | 3 (X > 20 Rank 3) |
| NC(Cc1cccc(CSc2nc(-c3ccccc3)c(-c3ccccc3)o2)n1)C(=O)O (stereo not drawn) [Compound 119] | 2 (10 < X < 20 Rank 2) | 3 (X > 20 Rank 3) | 1 (0 < X < 10 Rank 1) |
| NC(Cc1ccc(-c2ccc(CN3CCN(c4ccc(F)cc4)CC3)cc2)cc1)C(=O)O (stereo not drawn) [Compound 120] | 0 (X < 0 Rank 0) | 1 (0 < X < 10 Rank 1) | 1 (0 < X < 10 Rank 1) |
| Cc1ccnc(SCc2cccc(CC(N)C(=O)O)n2)n1 (stereo not drawn) [Compound 121] | 0 (X < 0 Rank 0) | 0 (X < 0 Rank 0) | 1 (0 < X < 10 Rank 1) |
| Cc1nc(SCc2ccc(-c3ccc(CC(N)C(=O)O)cc3)cc2)sc1CC(=O)O (stereo not drawn) [Compound 122] | 0 (X < 0 Rank 0) | 0 (X < 0 Rank 0) | 1 (0 < X < 10 Rank 1) |

| Compound | Comparison with the Binding of Phenylalanine (10^−4 M) | Comparison with the Binding of Phenylalanine (10^−5 M) | Comparison with the Binding of Phenylalanine (10^−6 M) |
| --- | --- | --- | --- |
| NC(Cc1cccc(CSc2nnnn2CC(=O)O)n1)C(=O)O (stereo not drawn) [Compound 123] | 0 (X < 0 Rank 0) | 2 (10 < X < 20 Rank 2) | 2 (10 < X < 20 Rank 2) |
| NC(Cc1ccc(-c2ccc(CSc3nc4cc([N+](=O)[O-])ccc4[nH]3)cc2)cc1)C(=O)O (stereo not drawn) [Compound 124] | 0 (X < 0 Rank 0) | 1 (0 < X < 10 Rank 1) | 1 (0 < X < 10 Rank 1) |
| NC(Cc1cccc(CSc2nc3ccccc3c(=O)[nH]2)n1)C(=O)O (stereo not drawn) [Compound 125] | 0 (X < 0 Rank 0) | 1 (0 < X < 10 Rank 1) | 2 (10 < X < 20 Rank 2) |
| Cc1nnc(SCc2ccc(-c3ccc(CC(N)C(=O)O)cc3)cc2)s1 (stereo not drawn) [Compound 126] | 0 (X < 0 Rank 0) | 1 (0 < X < 10 Rank 1) | 1 (0 < X < 10 Rank 1) |
| CC(=O)c1ccc(N2CCN(Cc3cccc(CC(N)C(=O)O)n3)CC2)cc1 (stereo not drawn) [Compound 127] | 1 (0 < X < 10 Rank 1) | 2 (10 < X < 20 Rank 2) | 0 (X < 0 Rank 0) |
| CCOC(=O)c1cnc(SCc2cccc(CC(N)C(=O)O)c2)[nH]c1=O (stereo not drawn) [Compound 131] | 2 (10 < X < 20 Rank 2) | 3 (X > 20 Rank 3) | 3 (X > 20 Rank 3) |
| NC(Cc1cccc(-c2cccc(Sc3nc(-c4ccccc4)c(-c4ccccc4)o3)c2)c1)C(=O)O (stereo not drawn) [Compound 134] | 0 (X < 0 Rank 0) | 0 (X < 0 Rank 0) | 1 (0 < X < 10 Rank 1) |
| COc1ccc2[nH]c(SCc3cccc(CC(N)C(=O)O)c3)nc2c1 (stereo not drawn) [Compound 135] | 2 (10 < X < 20 Rank 2) | 3 (X > 20 Rank 3) | 2 (10 < X < 20 Rank 2) |
| Cc1ccnc(Sc2cccc(-c3cccc(CC(N)C(=O)O)c3)c2)n1 (stereo not drawn) [Compound 136] | 0 (X < 0 Rank 0) | 0 (X < 0 Rank 0) | 3 (X > 20 Rank 3) |
| NC(Cc1cccc(CSc2ncccc2C(=O)O)c1)C(=O)O (stereo not drawn) [Compound 137] | 0 (X < 0 Rank 0) | 0 (X < 0 Rank 0) | 2 (10 < X < 20 Rank 2) |
| NC(Cc1cccc(-c2cccc(Sc3nnnn3CC(=O)O)c2)c1)C(=O)O (stereo not drawn) [Compound 138] | 0 (X < 0 Rank 0) | 0 (X < 0 Rank 0) | 1 (0 < X < 10 Rank 1) |
| Cn1cnnc1SCc1cccc(CC(N)C(=O)O)c1 (stereo not drawn) [Compound 141] | 0 (X < 0 Rank 0) | 0 (X < 0 Rank 0) | 1 (0 < X < 10 Rank 1) |
| NC(Cc1cccc(-c2cccc(Sc3ccc4ccccc4n3)c2)c1)C(=O)O (stereo not drawn) [Compound 144] | 0 (X < 0 Rank 0) | 0 (X < 0 Rank 0) | 1 (0 < X < 10 Rank 1) |
| CCOC(=O)c1cnc(SCc2cccc(CC(N)C(=O)O)n2)[nH]c1=O (stereo not drawn) [Compound 146] | 2 (10 < X < 20 Rank 2) | 3 (X > 20 Rank 3) | 3 (X > 20 Rank 3) |
| N#CC1(c2ccccc2)CCN(Cc2ccc(-c3ccc(CC(N)C(=O)O)cc3)cc2)CC1 (stereo not drawn) [Compound 147] | 0 (X < 0 Rank 0) | 0 (X < 0 Rank 0) | 1 (0 < X < 10 Rank 1) |
| NC(Cc1cccc(CSc2nc(-c3ccccc3)c(-c3ccccc3)[nH]2)n1)C(=O)O (stereo not drawn) [Compound 148] | 0 (X < 0 Rank 0) | 0 (X < 0 Rank 0) | 2 (10 < X < 20 Rank 2) |
